In brackets after ≈: the same amount, converted by molar mass.
Tests used:
Assay type in all cases: functional
[1] = species: Sus scrofa; experiment: Relative hydrolysis was measured by hog renal dehydropeptidase (DHP).
[2] = tested on: Morganella morganii; experiment: In vitro minimum inhibitory concentration required against Morganella morganii GC 2213 strain
[3] = tested on: Pseudomonas aeruginosa; experiment: In vitro minimum inhibitory concentration required against Pseudomonas aeruginosa ATCC 27853 strain
[4] = tested on: Stenotrophomonas maltophilia; experiment: In vitro minimum inhibitory concentration required against Xanthomonas maltophilia GC 562 strain
[5] = tested on: Acinetobacter calcoaceticus; experiment: In vitro minimum inhibitory concentration required against Acinetobacter calcoaceticus GC 756 strain; conditions: Acinetobacter calcoaceticus; read-out: MIC
[6] = tested on: Pseudomonas aeruginosa; experiment: In vitro minimum inhibitory concentration required against Pseudomonas aeruginosa GC 1544 oprD- strain
[7] = tested on: Enterococcus faecium; experiment: In vitro minimum inhibitory concentration required against Enterococcus faecium GC 1182 strain; conditions: Enterococcus faecium; read-out: MIC
[8] = tested on: Enterobacter cloacae; experiment: In vitro minimum inhibitory concentration required against Enterobacter cloacae GC 2209 strain
[9] = tested on: Citrobacter freundii; experiment: In vitro minimum inhibitory concentration required against Citrobacter freundii GC 2211 strain
[10] = tested on: Enterococcus faecalis; experiment: In vitro minimum inhibitory concentration required against Enterococcus faecalis GC 842 strain; conditions: Enterococcus faecalis; read-out: MIC
[11] = tested on: Escherichia coli; experiment: In vitro minimum inhibitory concentration required against Escherichia coli ATCC 25922 strain
[12] = tested on: Escherichia coli; experiment: In vitro minimum inhibitory concentration required against Escherichia coli GC 1792 strain
[13] = tested on: Escherichia coli; experiment: In vitro minimum inhibitory concentration required against Escherichia coli GC 2205 strain
[14] = tested on: Staphylococcus aureus; experiment: In vitro minimum inhibitory concentration required against Staphylococcus aureus GC 2220 MRSA strain
[15] = tested on: Staphylococcus aureus; experiment: In vitro minimum inhibitory concentration required against Staphylococcus aureus ATCC 29213 strain
[16] = tested on: Escherichia coli; experiment: Effective single oral dose required for inhibition of Escherichia coli in mice; conditions: Escherichia coli, po; read-out: ED50
[17] = tested on: Escherichia coli; experiment: Effective single subcutaneous dose required for inhibition of Escherichia coli in mice; conditions: Escherichia coli, sc; read-out: ED50

Row | Compound | Relative hydrolysis [1] | MIC [5] [µg/mL] | MIC [8] [µg/mL] | MIC [9] [µg/mL] | MIC [11] [µg/mL] | MIC [12] [µg/mL] | MIC [13] [µg/mL] | MIC [15] [µg/mL] | MIC [2] [µg/mL] | MIC [3] [µg/mL] | MIC [4] [µg/mL] | MIC [6] [µg/mL] | MIC [7] [µg/mL] | MIC [10] [µg/mL] | MIC [14] [µg/mL] | ED50 [16] [mg/kg] | ED50 [17] [mg/kg]
1 | C[C@H]1C(S[C@H]2CCO[C@H]2CN)=C(C(=O)O)N2C(=O)[C@H]([C@@H](C)O)C12 (some centres undefined) | 4.5 | 4 (≈ 11.7 µM) | 0.25 (≈ 0.73 µM) | 0.5 (≈ 1.46 µM) | 0.5 (≈ 1.46 µM) | 0.5 (≈ 1.46 µM) | 0.5 (≈ 1.46 µM) | 0.12 (≈ 0.35 µM) | 2 (≈ 5.84 µM) | 4 (≈ 11.7 µM) | > 128 | 16 (≈ 46.7 µM) | 128 (≈ 374 µM) | 4 (≈ 11.7 µM) | 8 (≈ 23.4 µM) |  | 
2 | C[C@H]1C(SC2COC(CN)C2)=C(C(=O)O)N2C(=O)[C@H]([C@@H](C)O)C12 (stereo in doubt; 3a) |  | 1 (≈ 2.92 µM) | ≤ 0.06 | ≤ 0.06 | ≤ 0.06 | ≤ 0.06 | ≤ 0.06 | ≤ 0.06 |  |  |  |  |  |  |  | 3.7 | 0.27
3 | C[C@H]1C(SC2COC(CN)C2)=C(C(=O)O)N2C(=O)[C@H]([C@@H](C)O)C12 (stereo in doubt; 3b) | 10 |  |  |  |  |  |  |  |  |  |  |  |  |  |  |  | 
4 | C[C@@H](O)[C@H]1C(=O)N2C(C(=O)O)=C(S[C@@H]3CN[C@H](C(=O)N(C)C)C3)[C@H](C)[C@H]12 [MEROPENEM] | 28 | 0.5 (≈ 1.3 µM) | ≤ 0.06 | ≤ 0.06 | ≤ 0.06 | ≤ 0.06 | ≤ 0.06 | ≤ 0.06 | ≤ 0.06 | 0.25 (≈ 0.652 µM) | > 128 | 4 (≈ 10.4 µM) | > 128 | 2 (≈ 5.22 µM) | 8 (≈ 20.9 µM) |  | 

Second part, led by results:

Row | Relative hydrolysis [1] | MIC [5] [µg/mL] | MIC [8] [µg/mL] | MIC [9] [µg/mL] | MIC [11] [µg/mL] | MIC [12] [µg/mL] | MIC [13] [µg/mL] | MIC [15] [µg/mL] | Compound | MIC [2] [µg/mL] | MIC [3] [µg/mL] | MIC [4] [µg/mL] | MIC [6] [µg/mL] | MIC [7] [µg/mL] | MIC [10] [µg/mL] | MIC [14] [µg/mL] | ED50 [16] [mg/kg] | ED50 [17] [mg/kg]
5 | 8.5 |  |  |  |  |  |  |  | C[C@@H](O)[C@H]1C(=O)N2C(C(=O)O)=C(S[C@@H]3CCO[C@@H]3CN)[C@H](C)[C@H]12 |  |  |  |  |  |  |  | 3.8 | 0.34
6 | 39 | 16 (≈ 46.7 µM) | 0.25 (≈ 0.73 µM) | 1 (≈ 2.92 µM) | 0.25 (≈ 0.73 µM) | 0.25 (≈ 0.73 µM) | 0.25 (≈ 0.73 µM) | 0.12 (≈ 0.35 µM) | C[C@H]1C(S[C@@H]2COC[C@H]2CN)=C(C(=O)O)N2C(=O)[C@H]([C@@H](C)O)C12 (some centres undefined) | 4 (≈ 11.7 µM) | 32 (≈ 93.5 µM) | > 128 | 64 (≈ 187 µM) | > 128 | 8 (≈ 23.4 µM) | 16 (≈ 46.7 µM) |  | 
7 | 37 | 8 (≈ 23.4 µM) | 0.5 (≈ 1.46 µM) | 1 (≈ 2.92 µM) | 0.5 (≈ 1.46 µM) | 0.5 (≈ 1.46 µM) | 0.5 (≈ 1.46 µM) | 0.12 (≈ 0.35 µM) | C[C@H]1C(S[C@H]2COC[C@@H]2CN)=C(C(=O)O)N2C(=O)[C@H]([C@@H](C)O)C12 (some centres undefined) | 4 (≈ 11.7 µM) | 16 (≈ 46.7 µM) | > 128 | 64 (≈ 187 µM) | > 128 | 8 (≈ 23.4 µM) | 16 (≈ 46.7 µM) |  | 
8 | < 1 |  |  |  |  |  |  |  | C[C@H]1C(S[C@@H]2COC[C@@H]2CN)=C(C(=O)O)N2C(=O)[C@H]([C@@H](C)O)C12 (some centres undefined) |  |  |  |  |  |  |  |  | 
